We go through 20 compounds from US9718792B2, “Isoxazoline hydroxamic acid derivatives as LpxC inhibitors” (priority 2014, dated 2017).

Each structure is given as a SMILES string. Values after ≈ are worked out from the molar mass of the structure shown. Like-named read-outs stand apart in the source and are kept apart here. Some results are limits rather than exact numbers.

In one assay the target is P. aeruginosa LpxC (Pseudomonas aeruginosa (strain ATCC 15692 / DSM 22644 / CIP 104116 / JCM 14847 / LMG 12228 / 1C / PRS 101 / PAO1), UniProt P47205). The assay can be described thus: P. aeruginosa LpxC Inhibition Assay. It counts as biochemical. Conditions: 1 nM P. aeruginosa LpxC, 2 μM substrate, LC-MS/MS; read-out: PA LpxC IC50. From the text:
The P. aeruginosa LpxC protein is produced according to the general method of Hyland et al (Journal of Bacteriology 1997 179, 2029-2037: Cloning, expression and purification of UDP-3-O-acyl-GIcNAc deacetylase from Pseudomonas aeruginosa: a metalloamidase of the lipid A biosynthesis pathway). The LC-MS/MS method for quantitation of LpxC product was developed using an Agilent 1200 Capillary HPLC system coupled to an Applied Biosystems MDS Sciex 4000QTRAP mass spectrometer. Both instruments are controlled using the Applied Biosystems MDS Sciex Analyst software. LpxC reaction product (UDP-3-O—(R-3-hydroxyacyl)-glucosamine) was produced by hydrolysis of LpxC substrate catalyzed by P.a. LpxC and purified using reversed phase chromatography on a Phenomenex Luna C18(2) 4.6×50 mm column. An LpxC product calibration curve was generated to evaluate the sensitivity and dynamic range of the LC-MS/MS method. Briefly, compounds are pre-incubated with 1 nM P. aeruginosa LpxC for 30 min. at room temperature. Reactions are initiated by the addition of 2 μM UDP-3-O—(R-3-hydroxydecanoyl)-GIcNAc. Reactions are conducted in a 384-well plate with a total volume of 50 μL in each well containing 50 mM Sodium phosphate pH 7.5, 0.005% Trition X-100 for 20 min at room temperature. After quenching with 1.8% HOAc (5 μL of a 20% HOAc added to each well), reaction mixtures are analyzed using the LC-MS/MS method and peak areas are transformed into product concentration using a LpxC product calibration curve. Total activity (0% inhibition control) is obtained from reactions with no inhibitors and 100% inhibition control is the background using quenched samples before reaction starts. For IC50 determinations, peak areas are converted to percent inhibition in Microsoft Excel. Percent inhibition values are plotted vs. log compound concentration using XLfit. Data is fit to the four-parameter logistic equation using the non-linear regression algorithm in XLfit to return the IC50 and hill slope values.

The test system of another assay is P. aeruginosa PAO1. The assay can be described thus: Susceptibility Testing (MIC, broth microdilution). It is filed as cell-based, Pseudomonas aeruginosa. Particulars: Pseudomonas aeruginosa, PAO1, 20 h, read-out: PAO1 MIC. The procedure:
Bacterial isolates were cultivated from −70° C. frozen stocks by two consecutive overnight passages at 35° C. in ambient air on 5% blood agar (Remel, Lenexa, Kans.). Quality control and P. aeruginosa ATCC 27853) is from the American Type Culture Collection (ATCC; Rockville, Md.) and PAO1 was received from Dr. K. Poole.
Minimal Inhibitory Concentrations (MICs) were determined by the broth microdilution method in accordance with Clinical and Laboratories Institute (CLSI) guidelines. In brief, fresh bacterial overnight cultures were resuspended in sterile saline, adjusted to a 0.5 McFarland turbidity standard and then diluted […] in cation adjusted Mueller-Hinton Broth II (MHB; Remel BBL) to yield a final inoculum of approximately 5×10^5 colony-forming units (CFU)/mL. Two-fold serial dilutions of compounds were prepared in 100% dimethyl sulfoxide (DMSO) at 100-fold the highest final assay concentration; the resulting dilution series of compounds were diluted 1:10 with sterile water. Ten μl of the drug dilution series in 10% DMSO was transferred to microtiter wells and 90 μl of bacterial suspension was inoculated into the wells. All inoculated microdilution trays were incubated in ambient air at […] for 20 hours. Following incubation, assay plates were read in a microtiter plate reader at 600 nm and visually inspected to confirm the MIC endpoint well with the OD value. The lowest concentration of the compound that prevented visible growth was recorded as the MIC. Performance of the assay was monitored by testing ciprofloxacin against laboratory quality control strains in accordance with guidelines of the CLSI.

Where [1] appears, read: P. aeruginosa PAO1, broth microdilution, 20 hours.

Regarding `CC#Cc1ccc(C2=NO[C@@H](C[C@](C)(C(=O)NO)S(C)(=O)=O)C2)cc1` [Compound 2-A, (R)—N-hydroxy-2-methyl-2-(methylsulfonyl)-3-((R)-3-(4-(prop-1-yn-1-yl)phenyl)-4,5-dihydroisoxazol-5-yl)propanamide], the 50% inhibitory concentration (IC50) at P. aeruginosa LpxC amounted to 0.8 nM. Besides, the MIC with P. aeruginosa PAO1 (setting [1]) amounted to 0.25 µg/mL (≈ 0.686 µM).
With `C[C@@](C[C@H]1CC(c2ccc(C#CC3CC3)cc2)=NO1)(C(=O)NO)S(C)(=O)=O` [Compound 6-A, (R)-3-((R)-3-(4-(cyclopropylethynyl)phenyl)-4,5-dihydroisoxazol-5-yl)-N-hydroxy-2-methyl-2-(methylsulfonyl)propanamide], at P. aeruginosa LpxC, the IC50 was found to be 0.7 nM. Further, the minimum inhibitory concentration (MIC) in the assay on P. aeruginosa PAO1 (setting [1]) was 0.25 µg/mL (≈ 0.64 µM).
Turning to `C[C@@](C[C@H]1CC(c2ccc(C#CCCF)cc2)=NO1)(C(=O)NO)S(C)(=O)=O` [Compound 22, (R)-3-((R)-3-(4-(4-fluorobut-1-yn-1-yl)phenyl)-4,5-dihydroisoxazol-5-yl)-N-hydroxy-2-methyl-2-(methylsulfonyl)propanamide], the IC50 at P. aeruginosa LpxC was < 0.5 nM. In addition, the MIC in the assay on P. aeruginosa PAO1 (setting [1]) came to 0.5 µg/mL (≈ 1.26 µM).
The matching figures for `CCCc1ccc(C2=NO[C@@H](C[C@](C)(C(=O)NO)S(C)(=O)=O)C2)cc1` [Compound 23, (R)—N-hydroxy-2-methyl-2-(methylsulfonyl)-3-((R)-3-(4-propylphenyl)-4,5-dihydroisoxazol-5-yl)propanamide]: < 0.5 nM and 0.5 µg/mL (≈ 1.36 µM).
As for `C/C=C/c1ccc(C2=NO[C@@H](C[C@](C)(C(=O)NO)S(C)(=O)=O)C2)cc1` [Compound 24, (R)—N-hydroxy-2-methyl-2-(methylsulfonyl)-3-((R)-3-(4-((E)-prop-1-en-1-yl)phenyl)-4,5-dihydroisoxazol-5-yl)propanamide], the IC50 on P. aeruginosa LpxC is 0.8 nM. The MIC in the assay with P. aeruginosa PAO1 (setting [1]) was found to be 0.5 µg/mL (≈ 1.36 µM).
On the same counts, the results for `C/C=C(\F)c1ccc(C2=NO[C@@H](C[C@](C)(C(=O)NO)S(C)(=O)=O)C2)cc1` [Compound 29, (R)-3-((R)-3-(4-((Z)-1-fluoroprop-1-en-1-yl)phenyl)-4,5-dihydroisoxazol-5-yl)-N-hydroxy-2-methyl-2-(methylsulfonyl)propanamide] are 0.6 nM and 0.125 µg/mL (≈ 0.325 µM).
For `CC(O)C#CC#Cc1ccc(C2=NO[C@@H](C[C@](C)(C(=O)NO)S(C)(=O)=O)C2)cc1` (stereo partly drawn) [Compound 30, (2R)—N-hydroxy-3-((5R)-3-(4-(5-hydroxyhexa-1,3-diyn-1-yl)phenyl)-4,5-dihydroisoxazol-5-yl)-2-methyl-2-(methylsulfonyl)propanamide], at P. aeruginosa LpxC, the IC50 was determined as 0.5 nM. Besides, the MIC with P. aeruginosa PAO1 (setting [1]) is 0.06 µg/mL (≈ 0.143 µM).
The matching figures for `CCc1ccc(C2=NO[C@@H](C[C@](C)(C(=O)NO)S(C)(=O)=O)C2)cc1` [Compound 31, (R)-3-((R)-3-(4-ethylphenyl)-4,5-dihydroisoxazol-5-yl)-N-hydroxy-2-methyl-2-(methylsulfonyl)propanamide]: 1 nM and 0.22 µg/mL (≈ 0.621 µM).
On the same counts, the results for `CCSc1ccc(C2=NO[C@@H](C[C@](C)(C(=O)NO)S(C)(=O)=O)C2)cc1` [Compound 32, (R)-3-((R)-3-(4-(ethylthio)phenyl)-4,5-dihydroisoxazol-5-yl)-N-hydroxy-2-methyl-2-(methylsulfonyl)propanamide] are 0.9 nM and 0.4 µg/mL (≈ 1.03 µM).
Turning to `C[C@@](C[C@H]1CC(c2ccc(CCCF)cc2)=NO1)(C(=O)NO)S(C)(=O)=O` [Compound 33, (R)-3-((R)-3-(4-(3-fluoropropyl)phenyl)-4,5-dihydroisoxazol-5-yl)-N-hydroxy-2-methyl-2-(methylsulfonyl) propanamide], on P. aeruginosa LpxC, the IC50 worked out at 2 nM. Further, in the assay with P. aeruginosa PAO1, the MIC turned out to be 0.5 µg/mL (≈ 1.29 µM).
In the case of `C[C@@](C[C@H]1CC(c2ccc(CCCCF)cc2)=NO1)(C(=O)NO)S(C)(=O)=O` [Compound 34, (R)-3-((R)-3-(4-(4-fluorobutyl)phenyl)-4,5-dihydroisoxazol-5-yl)-N-hydroxy-2-methyl-2-(methylsulfonyl) propanamide], the half-maximal inhibitory concentration (IC50) at P. aeruginosa LpxC came to 2 nM. Moreover, the MIC with P. aeruginosa PAO1 (setting [1]) stood at 0.5 µg/mL (≈ 1.25 µM).
As for `CC(C)(O)[C@H]1C[C@H](C#Cc2ccc(C3=NO[C@@H](C[C@](C)(C(=O)NO)S(C)(=O)=O)C3)cc2)C1` [Compound 39A, (R)—N-hydroxy-3-((R)-3-(4-(((1 r,3R)-3-(2-hydroxypropan-2-yl)cyclobutyl)ethynyl)phenyl)-4,5-dihydroisoxazol-5-yl)-2-methyl-2-(methylsulfonyl)propanamide], the IC50 on P. aeruginosa LpxC turned out to be 0.5 nM. The MIC in the assay with P. aeruginosa PAO1 (setting [1]) was found to be 0.5 µg/mL (≈ 1.08 µM).
Turning to `CC(C)(O)[C@H]1C[C@@H](C#Cc2ccc(C3=NO[C@@H](C[C@](C)(C(=O)NO)S(C)(=O)=O)C3)cc2)C1` [Compound 39B, (R)—N-hydroxy-3-((R)-3-(4-(((1 s,3S)-3-(2-hydroxypropan-2-yl)cyclobutyl)ethynyl)phenyl)-4,5-dihydroisoxazol-5-yl)-2-methyl-2-(methylsulfonyl)propanamide], the IC50 on P. aeruginosa LpxC was 2 nM. Further, the MIC in the assay with P. aeruginosa PAO1 (setting [1]) was found to be 1 µg/mL (≈ 2.16 µM).
On the same counts, the results for `C[C@@](C[C@H]1CC(c2ccc(-c3ccc(CCO)cc3)cc2)=NO1)(C(=O)NO)S(C)(=O)=O` [Compound 40, (R)—N-hydroxy-3-((R)-3-(4′-(2-hydroxyethyl)-[1,1′-biphenyl]-4-yl)-4,5-dihydroisoxazol-5-yl)-2-methyl-2-(methylsulfonyl)] are 0.5 nM and 0.16 µg/mL (≈ 0.358 µM).
On the same counts, the results for `C[C@@](C[C@H]1CC(c2ccc(-c3ccc(CO)cc3)cc2)=NO1)(C(=O)NO)S(C)(=O)=O` [Compound 41, (R)—N-hydroxy-3-((R)-3-(4′-(hydroxymethyl)-[1,1′-biphenyl]-4-yl)-4,5-dihydroisoxazol-5-yl)-2-methyl-2-(methylsulfonyl)] are 0.5 nM and 0.125 µg/mL (≈ 0.289 µM).
For `C[C@@](C[C@H]1CC(c2ccc(-c3ccncc3F)cc2)=NO1)(C(=O)NO)S(C)(=O)=O` [Compound 42, (R)-3-((R)-3-(4-(3-fluoropyridin-4-yl)phenyl)-4,5-dihydroisoxazol-5-yl)-N-hydroxy-2-methyl-2-(methylsulfonyl)propanamide], the IC50 on P. aeruginosa LpxC came to 0.5 nM. For the same compound, in the assay on P. aeruginosa PAO1 (setting [1]), the MIC was found to be 0.25 µg/mL (≈ 0.593 µM).
On the same counts, the results for `C[C@@](C[C@H]1CC(c2ccc(-n3nccn3)cc2)=NO1)(C(=O)NO)S(C)(=O)=O` [Compound 43, (R)-3-((R)-3-(4-(2H-1,2,3-triazol-2-yl)phenyl)-4,5-dihydroisoxazol-5-yl)-N-hydroxy-2-methyl-2-(methylsulfonyl)propanamide] are 5 nM and 1.4 µg/mL (≈ 3.56 µM).
The matching figures for `COC1CC(C#Cc2ccc(C3=NO[C@@H](C[C@](C)(C(=O)NO)S(C)(=O)=O)C3)cc2)C1` (stereo partly drawn) [Compound 44, (R)—N-hydroxy-3-((R)-3-(4-((3-methoxycyclobutyl)ethynyl)phenyl)-4,5-dihydroisoxazol-5-yl)-2-methyl-2-(methylsulfonyl)propanamide]: 0.8 nM and 0.5 µg/mL (≈ 1.15 µM).
On the same counts, the results for `C[C@@H](O)Cc1ccc(-c2ccc(C3=NO[C@@H](C[C@](C)(C(=O)NO)S(C)(=O)=O)C3)cc2)cc1` [Compound 45, (R)—N-hydroxy-3-((R)-3-(4′-((R)-2-hydroxypropyl)-[1,1′-biphenyl]-4-yl)-4,5-dihydroisoxazol-5-yl)-2-methyl-2-(methylsulfonyl)] are 0.6 nM and 0.16 µg/mL (≈ 0.347 µM).
Turning to `C[C@H](O)Cc1ccc(-c2ccc(C3=NO[C@@H](C[C@](C)(C(=O)NO)S(C)(=O)=O)C3)cc2)cc1` [Compound 46, (R)—N-hydroxy-3-((R)-3-(4′-((S)-2-hydroxypropyl)-[1,1′-biphenyl]-4-yl)-4,5-dihydroisoxazol-5-yl)-2-methyl-2-(methylsulfonyl)], the IC50 at P. aeruginosa LpxC amounted to 1 nM. In addition, the minimum inhibitory concentration (MIC) in the assay on P. aeruginosa PAO1 (setting [1]) turned out to be 0.125 µg/mL (≈ 0.271 µM).
